These results are taken from article PMC4459817, “Vasculotide reduces endothelial permeability and tumor cell extravasation in the absence of binding to or agonistic activation of Tie2” (EMBO Molecular Medicine, 2015).

In assay [1] the test system is HT29luc metastases in YFP-SCID mice. Briefly: experimental HT29luc liver/lymphatic metastasis model (IV). Type of assay: in vivo, human HT29luc cells in YFP-SCID mice. The settings on record: VT vs PBS; Fig3A–D; 35DPI imaging. An excerpt: Figure 3 Vasculotide has no effect on experimental liver metastases from a colon cancer cell line (HT29^luc), nor on experimental lung metastases from a renal cancer cell line (SN12^luc) • A–D An experiment where HT29^luc tumor cells were implanted intravenously into YFP-SCID mice. (A) Kaplan–Meier survival analysis. (B) Quantification of total metastatic burden in the liver and lymphatics, at 35 days post-implantation (DPI), from whole-body bioluminescent imaging (C). (D) Photograph of typical liver metastases. • E–G An experiment where SN12^luc tumor cells were implanted intravenously into YFP-SCID mice. (E) Kaplan–Meier survival analysis. (F) Quantification of total metastatic burden at 50DPI, mostly within the lungs, from whole-body bioluminescent imaging (G). […]
For in vivo BI: Mice were injected intraperitoneally with 150mg/kg luciferin (Promega) 10 minutes prior to and anesthetized with isofluorane just before luminescent pseudocolor imaging (uniform settings: CCD camera locked at -105 °C, exposure=60s, f/1, subject size=1.5cm, bin=8, FOV=23.2cm, full image correction) using the IVIS 200 Imaging System (Caliper/PerkinElmer). Using the Living Image software (v2.50.1, Xenogen), weekly images were analyzed under uniform color range on grayscale photographic overlay. […]

In assay [2] the target is T1, human Tie2-Fc (Fc-conjugated extracellular domain of Tie2) (human, UniProt Q02763 23-748).
T1 chain: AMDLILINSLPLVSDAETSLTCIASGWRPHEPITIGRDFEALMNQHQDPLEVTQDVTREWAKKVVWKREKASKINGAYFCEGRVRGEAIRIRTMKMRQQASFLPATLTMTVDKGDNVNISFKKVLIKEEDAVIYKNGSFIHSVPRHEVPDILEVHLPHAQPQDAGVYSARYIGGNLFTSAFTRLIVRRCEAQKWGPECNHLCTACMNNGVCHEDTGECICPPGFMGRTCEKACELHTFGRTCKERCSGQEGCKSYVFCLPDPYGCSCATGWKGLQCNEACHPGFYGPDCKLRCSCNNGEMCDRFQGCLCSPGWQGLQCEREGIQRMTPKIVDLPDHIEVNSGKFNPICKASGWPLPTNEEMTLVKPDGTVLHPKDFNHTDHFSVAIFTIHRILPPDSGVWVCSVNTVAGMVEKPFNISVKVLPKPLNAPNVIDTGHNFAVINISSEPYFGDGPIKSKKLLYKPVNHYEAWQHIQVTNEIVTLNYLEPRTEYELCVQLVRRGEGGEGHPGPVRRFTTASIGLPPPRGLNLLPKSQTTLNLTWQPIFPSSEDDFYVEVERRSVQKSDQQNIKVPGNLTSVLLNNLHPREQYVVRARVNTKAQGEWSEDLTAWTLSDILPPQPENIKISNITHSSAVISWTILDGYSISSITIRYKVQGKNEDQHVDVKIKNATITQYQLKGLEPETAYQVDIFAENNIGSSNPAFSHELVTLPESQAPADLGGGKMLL
Briefly: SPR. On the technique in general: SPR reads the build-up and loss of mass on a sensor chip optically.

As to “CHHHRHSF [Vasculotide, 4-armed maleimide-functionalized polyethylene glycol (PEG) backbone to link together four cysteine-capped T7 peptides, that is, CHHHRHSF]”, in assay [1], the “survival, metastatic burden (IVBI) and liver-specific metastases” value is listed as “No significant differences”.

B1: recombinant human Ang1 (rhAng1) (ligand, UniProt Q15389 16-498, looked up)
chain: HIGCSNQRRSPENSGRRYNRIQHGQCAYTFILPEHDGNCRESTTDQYNTNALQRDAPHVEPDFSSQKLQHLEHVMENYTQWLQKLENYIVENMKSEMAQIQQNAVQNHTATMLEIGTSLLSQTAEQTRKLTDVETQVLNQTSRLEIQLLENSLSTYKLEKQLLQQTNEILKIHEKNSLLEHKILEMEGKHKEELDTLKEEKENLQGLVTRQTYIIQELEKQLNRATTNNSVLQKQQLELMDTVHNLVNLCTKEGVLLKGGKREEEKPFRDCADVYQAGFNKSGIYTIYINNMPEPKKVFCNMDVNGGGWTVIQHREDGSLDFQRGWKEYKMGFGNPSGEYWLGNEFIFAITSQRQYMLRIELMDWEGNRAYSQYDRFHIGNEKQNYRLYLKGHTGTAGKQSSLILHGADFSTKDADNDNCMCKCALMLTGGWWFDACGPSNLNGMFYTAGQNHGKLNGIKWHYFKGPSYSLRSTTMMIRPLDF
notes: angiopoietin-1, human, recombinant; also called angiopoietin-1; source: bought: R&D Systems (named for the Boyden chamber experiments)
As a reminder, the koff is the rate constant with which the complex falls apart. Lower therefore signals slow dissociation. In turn, B1 returned an off-rate constant (koff) in assay [2] of 0.00029 s⁻¹.
